# In US20040013631A1, “Skin care cosmetic compositions containing carboxyalkylates of branched alcohols and/or alkoxylates thereof” (Unilever Home & Personal Care USA, Division of Conopco, priority 2002, published 2004):
# Read-outs that look alike come from different tables or passages of the source. Marks after values point to notes of the source that are not given here.
# Experiments:
# human sebocytes = assay: Inhibition of sebocyte lipogenesis (14C-acetate label remaining in sebocytes); type: cell-based; conditions: for IC50: read-out: IC 50 (concentration which provides a 50% sebum suppression relative to the control)
# [1] = Light absorbency (color) at 340-500 nm, Spectramax 340 spectrophotometer; type: physicochemical; conditions: from absorbency values at 340-500 nm
# [2] = 20 hour incubation, 96 well plate
# [3] = Homo sapiens, 20 hour incubation, 96 well plate
compound,measurement,setting,value
O=S1(=O)OC(c2ccc(O)cc2)(c2ccc(O)cc2)c2ccccc21 [Phenol Red],activity at 100 µM,"human sebocytes; Homo sapiens, 20 h, read-out: radioactive label remaining in the sebocytes, % of Control",46.3%
C13 isoalcohol carboxyethylate (TDCE) [Compound 1],"radioactive label remaining in the sebocytes, % of Control",human sebocytes; 1 µM,48.7* %
same,"radioactive label remaining in the sebocytes, % of Control",human sebocytes; 10 µM,34.6* %
same,"radioactive label remaining in the sebocytes, % of Control",human sebocytes; 100 µM,11.9* %
same,IC50,human sebocytes; [2],5 µM
same,color compared with TDCM,[1],lighter in color
"CC(C)CCCC(C)CCCC(C)CCOCCC(=O)O (centres unmarked) [Compound 7, 3,7,11-trimethyl 1-dodecanol carboxyethylate]",IC50,human sebocytes; [3],10 µM
same,activity as sebum suppressant relative to the branched alcohol from which it is derived,human sebocytes; ratio of IC50 values of Table 3,at least 10 times
"CC(C)CCCC(C)CCCC(C)CCO (centres unmarked) [Compound 6, 3,7,11-trimethyl 1-dodecanol]",IC50,human sebocytes; [3],> 100 µM
Iso-tridecyl carboxymethylate [TDCM],"radioactive label remaining in the sebocytes, % of Control","human sebocytes; 1 μM test agent, 20 hour incubation, 96 well plate, lower = greater inhibition of lipogenesis",84.8* %
same,"radioactive label remaining in the sebocytes, % of Control","human sebocytes; 10 μM test agent, 20 hour incubation, 96 well plate, lower = greater inhibition of lipogenesis",43.4* %
same,"radioactive label remaining in the sebocytes, % of Control","human sebocytes; 100 μM test agent, 20 hour incubation, 96 well plate, lower = greater inhibition of lipogenesis",22.8* %
C13 isoalcohol propionitrile [Compound 2],IC50,human sebocytes; [2],> 100 µM
C13 isoalcohol glycerol [Compound 5],IC50,human sebocytes; [2],> 100 µM
